Reference: PubChem BioAssay (NCI)
“And” between values parts separate entries of the source, which are not always exact repeats. Identical values can stand only once.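 Five compound concentrations were applied to cells in 96-well plates for 48 hours; endpoints were derived by simple linear interpolation of the resulting dose-response curve. The concentration for 50% growth inhibition is given as GI50. Definition used: TGI = concentration required for complete inhibition of growth.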

Key:
Test in all cases: NCI anticancer screen, dose series, 48 h
UO-31 renal = tested on: UO-31 renal
NCI-H522 lung = tested on: NCI-H522 lung
SN12C renal = tested on: SN12C renal
T-47D breast = tested on: T-47D breast
UACC-62 melanoma = tested on: UACC-62 melanoma
DU-145 prostate = tested on: DU-145 prostate
OVCAR-5 ovarian = tested on: OVCAR-5 ovarian
PC-3 prostate = tested on: PC-3 prostate
U251 CNS = tested on: U251 CNS
SK-OV-3 ovarian = tested on: SK-OV-3 ovarian

Structure (SMILES)	TGI (UO-31 renal) [µM]	TGI (NCI-H522 lung)	TGI (SN12C renal) [µM]	TGI (T-47D breast) [µM]	TGI (UACC-62 melanoma)	TGI (DU-145 prostate)	TGI (OVCAR-5 ovarian) [µM]	TGI (PC-3 prostate) [µM]	TGI (U251 CNS) [µM]	TGI (SK-OV-3 ovarian) [µM]	GI50 (UO-31 renal) [µM]	GI50 (NCI-H522 lung) [µM]	GI50 (DU-145 prostate) [µM]	GI50 (SK-OV-3 ovarian) [µM]	GI50 (UACC-62 melanoma) [µM]
CC(C(O)c1ccccc1)[N+](=O)[O-] (centres undefined)	20.6	22.9 µM	35.6	59.5	37.2 µM	35.5 µM	65.6	45.3	38.4	–	–	–	–	–	–
CN1CCN(c2ccc3nc(-c4ccc5nc(-c6ccc(N(C)CCCl)cc6)[nH]c5c4)[nH]c3c2)CC1	33.8	0.0365 µM	1.13	–	1.05 µM	11.4 µM	12.4	0.383	1.09	1.2	–	–	–	–	–
O=C(/C=C/c1ccsc1)c1ccc(Cl)s1	> 100	–	> 100	> 100	> 100 µM	> 100 µM	–	> 100	> 100	> 100	–	–	–	–	–
O=C(O)c1ccc(/C=N\N(CCO)C2=NCCN2)cc1	> 100	–	> 100	> 100	> 100 µM	> 100 µM	> 100	> 100	> 100	> 100	–	–	–	–	–
COc1cc(OC)c(NC2=NCCO2)cc1Cl	> 100	> 100 µM	> 100	> 100	> 100 µM	> 100 µM	> 100	71.8	> 100	–	–	–	–	–	–
O=C(/C=C\c1ccc(OCCCCCC[P+](c2ccccc2)(c2ccccc2)c2ccccc2)cc1)c1ccc2c(c1)OCCO2	3.2	4.42 µM	–	–	–	2.6 µM	–	–	–	3.88	1.52	0.885	1.21	1.58	–
CN(c1ccccc1Cl)S(=O)(=O)c1ccccc1	> 100	> 100 µM	> 100	–	> 100 µM	> 100 µM	> 100	> 100	> 100	> 100	–	–	–	–	–
Cc1cc(C)c(N)c(C)c1N	> 100	> 100 µM	> 100	–	> 100 µM	–	> 100	–	> 100	> 100	–	–	–	–	–
O=C1CSC(c2c(O)ccc3ccccc23)N1n1c(=S)[nH]nc(/C=C/c2c(O)ccc3ccccc23)c1=O (centres undefined)	15.1	21 µM	14.2	15.1	10.1 µM	15.3 µM	38.1	22.5	16.4	–	–	–	–	–	–
O=C(NN1C(=O)C(Cl)C1c1ccc([N+](=O)[O-])cc1)c1ccccc1O (centres undefined)	> 100	> 100 µM	> 100	–	> 100 µM	–	> 100	–	> 100	> 100	–	–	–	–	–
CN(C)S(=O)(=O)c1cccc(-c2nc3sc4c(c3c(=O)[nH]2)CCCC4)c1	–	> 100 µM	–	–	> 100 µM	–	–	–	–	–	–	> 100	–	–	> 100
CCOC(=O)/C(=C\NC#N)c1nc2ccccc2[nH]1	6.28	> 100 µM	> 100	–	> 100 µM	> 100 µM	> 100	–	–	> 100	–	–	–	–	–
CCOC(=O)C1CCn2c(nc3c(=O)n(C)c(=O)n(C)c32)S1 (centres undefined)	–	> 100 µM	> 100	–	> 100 µM	–	> 100	–	> 100	> 100	–	–	–	–	–
COc1cc(C(=O)OC2CC(C)=CC[C@@]3(C)CC[C@](O)(C(C)C)C23)ccc1O (some centres undefined)	30.4	28 µM	37.2	47.6	–	32.4 µM	32.6	31.9	67	29.1	–	–	–	–	–
CC(C)(CO)NC(=O)c1cccc(C(=O)NC(C)(C)CO)c1Br	> 100	–	–	> 100	> 100 µM	> 100 µM	> 100	> 100	> 100	–	–	–	–	–	–
CN(C)Cc1cc(C(=O)/C=C/c2c(F)cccc2Cl)cc(CN(C)C)c1O	18.7	–	17.2	33.4	26.1 µM	21.3 µM	36.2	29.5	28.9	28.3	–	–	–	–	–
COc1ccc(-c2c(C(C)=O)c(-c3ccccc3)n(C3OC(COC(C)=O)C(OC(C)=O)C(OC(C)=O)C3OC(C)=O)c(=S)c2C#N)cc1O (centres undefined)	> 100	35.9 µM and 47.7 µM	> 100	–	53.6 µM and > 100 µM	94.3 µM and > 100 µM	> 100	> 100	> 100	–	–	–	–	–	–
